Measured values published in paper PMC9504268, “Testing the Protective Effects of Sulfobutylether-Βeta-Cyclodextrin (SBECD) and Sugammadex against Chlorpromazine-Induced Acute Toxicity in SH-SY5Y Cell Line and in NMRI Mice” (Pharmaceutics, 2022).
pIC50: −log10 of the molar value. Counter-ions that a name gives are not always drawn. Like-named read-outs stand apart in the source and are kept apart here.

Experiments:
[1] = system: SH-SY5Y cells; assay: SH-SY5Y cell viability based on total protein levels (fluorescamine); design: species or system human; details: 24 h
Description: The SH-SY5Y cell line (neuroblastoma, human; ATCC: CRL-2266) was maintained in DMEM supplemented with 10% FBS, penicillin (100 U/mL) and streptomycin (100 µg/mL) and incubated at 37 °C in a humidified environment with 5% CO2. Cells were trypsinized then transferred to 96-well plates (10^4 cells/well). Next day, the medium has been replaced and cells were treated for 24 h with CPZ (0–100 μM), with CDs (0–1500 μM), or with the combinations of CPZ and CDs (final volume: 200 μL/well). After 24 h treatment of cells with CPZ and/or CDs, cells were washed three times with 200 μL of PBS (pH 7.4; also containing 0.18 g/L CaCl2, and 0.2 g/L MgCl2). […]
Since certain compounds can modify cellular ATP levels (which can disrupt the correlation of ATP concentration with the number of living cells), total protein measurements were also performed to confirm the ATP-based results. Total protein levels were determined with fluorescamine (Fluram) reagent, as has been previously reported. […] After homogenization, the fluorescence signals of these samples were determined with Enspire Multimode plate reader (PerkinElmer) employing 385 nm and 490 nm as excitation and emission wavelengths, respectively. Total protein concentrations were determined based on bovine serum albumin calibration curve. […]

[2] = system: several different cell lines; design: method as in PMID 4801078, PMID 6896707, PMID 23689352; details: cited from earlier work
[3] = system: NMRI mice; assay: in vivo; format: in vivo; details: typically
Description: (§1) Female NMRI mice weighing 25–35 g were used for the experiments. Animals were kept in the Laboratory Animal House of the Department of Pharmacology and Pharmacotherapy (University of Pécs) under standard pathogen-free conditions, and were provided with food pellets and water ad libitum. Mice were weighed then treated intraperitoneally (i.p.) with CPZ (120–300 mg/kg, 10 mL/kg, dissolved in physiological saline). Since CPZ typically provoked convulsions after 2 min, SBECD or SGD (500 or 2000 mg/kg, 10 mL/kg, dissolved in physiological saline) was administered i.v. immediately after the CPZ treatment. Control animals were treated with physiological saline (10 mL/kg i.p. and/or i.v.). Before and after the treatment, mice could consume feed and water ad libitum.
(§2) We decided to administer CPZ intraperitoneally because it leads to the more rapid appearance of the drug in the systemic circulation compared to the per os treatment. […] However, we applied CDs (SBECD or SGD) intravenously to produce immediately their high plasma concentrations as well as to avoid any potential local interactions of CDs with CPZ in the abdominal cavity.
(§3) In agreement with the 3Rs, the up-and-down method was used. One animal is treated at a time, starting around the LD50 value estimated. If the animal survived, then the following animal was treated with a higher dose. If the animal died, then the following animal was treated with a lower dose. This method provides a good estimation of LD50, while the number of animals sacrificed can be minimized. LD50 values were determined with the Probit Analysis (CI = 95%) as has been reported.

[4] = in vivo; format: in vivo, mice; details: female, NMRI, mouse, in vivo, female NMRI mice, read-out: LD50 (based on 24 h mortality)
Description: as §1, §2, §3

[5] = system: SH-SY5Y cells; assay: SH-SY5Y cell viability based on cellular ATP levels (luciferin-luciferase); design: species or system human; details: 24 h
Description: The SH-SY5Y cell line (neuroblastoma, human; ATCC: CRL-2266) was maintained in DMEM supplemented with 10% FBS, penicillin (100 U/mL) and streptomycin (100 µg/mL) and incubated at 37 °C in a humidified environment with 5% CO2. Cells were trypsinized then transferred to 96-well plates (10^4 cells/well). Next day, the medium has been replaced and cells were treated for 24 h with CPZ (0–100 μM), with CDs (0–1500 μM), or with the combinations of CPZ and CDs (final volume: 200 μL/well). After 24 h treatment of cells with CPZ and/or CDs, cells were washed three times with 200 μL of PBS (pH 7.4; also containing 0.18 g/L CaCl2, and 0.2 g/L MgCl2). Since cell death results in the detachment of cells from the plate, these floating cells and cell debris were removed from the well during these washing steps. Cells were lysed with 200 μL of borate buffer (0.2 M, pH 9.2) containing Triton X-100 (0.1%) detergent and ethylenediaminetetraacetic acid (EDTA, 20 mM), then the plate was placed in a shaker for 5 min. These lysates were applied in cellular ATP and total protein analyses.
The changes in cell viability were primarily evaluated based on ATP levels. ATP content is an indicator of metabolically active cells; therefore, cellular ATP concentration is a suitable parameter to assess the number of viable cells. ATP levels were quantified based on the luciferin-luciferase reaction adapted for microplate method, as has been described earlier. To quantify cellular ATP concentrations, a 10 μL/well volume of lysates was transferred into white 96-well optical plates (VWR, Debrecen, Hungary), after which 100 μL/well of the dissolved ATP reagent was added. Luminescence data of ATP standards and samples were measured with 5 s integration time, employing an Enspire Multimode reader (Perkin Elmer, Waltham, MA, US).
IC50 values were determined by sigmoidal fitting (Hill1) employing the Origin software (OriginLab Corporation, Northampton, MA, US). Statistical analyses were performed employing one-way ANOVA (with Tukey post hoc) test using the IBM SPSS Statistics software (Armonk, NY, US), where the level of significance was set as p < 0.01.

[6] = system: mice; design: method as in PMID 5630492, PMID 13813939; details: cited from earlier work
[7] = design: method as in PMID 16553456; details: in regard to cholesterol; cited from earlier work
[8] = design: method as in PMID 31726616, PMID 36031178; details: complexes with zearalenone; cited from earlier work
[9] = system: HeLa cells; design: method as in PMID 36031178; details: cited from earlier work
[10] = design: method as in PMID 32376444; details: CPZ complex, cited from earlier work
[11] = veratridine toxin–CD complexes; cited from earlier work
[12] = Homo sapiens, SH-SY5Y cells, sigmoidal fitting

For `CN(C)CCCN1c2ccccc2Sc2ccc(Cl)cc21` [CPZ, Chlorpromazine hydrochloride], the “decrease in total protein levels” value ([1]; 20 μM CPZ) is listed as “approximately 60%”, the pIC50 [1, 12] is listed as 4.82 and the “concentration range of significant toxic effects” value [2] is listed as 10 to 60 µM. For the same compound, the “time after which CPZ provoked convulsions” value ([3]; CPZ i.p. 120–300 mg/kg) was 2 min, the “time in which CPZ caused its lethal impact” value ([3]; CPZ i.p., with a few exceptions) was at most 2 h and the LD50 ([4]; 500 mg/kg, CPZ i.p. + 500 mg/kg SBECD i.v.) was 206 mg/kg. For the same compound, the LD50 ([4]; 500 mg/kg, CPZ i.p. + 500 mg/kg SGD i.v.) was 200 mg/kg, the LD50 ([4]; 2000 mg/kg, CPZ i.p. + 2000 mg/kg SBECD i.v.) was 233 mg/kg and the LD50 ([4]; 2000 mg/kg, CPZ i.p. + 2000 mg/kg SGD i.v.) was 172 mg/kg. For the same compound, the LD50 ([4]; CPZ i.p., control (physiological saline i.v.)) was 194 mg/kg, the “concentration showing close the maximal toxicity” value ([5]; 0–100 μM tested) was 50 µM and the “lowest concentration causing statistically significant (p < 0.01) decrease of ATP and total protein levels/well” value ([5]; 0–100 μM tested) was 5 µM. For the same compound, the “decrease in ATP levels” value ([5]; 20 μM CPZ) was “approximately 60%”, the pIC50 [5, 12] was 4.80 and the “i.p. LD50” value [6] was 150 to 220 mg/kg.

In the case of `CC(O)COC[C@H]1O[C@@H]2O[C@H]3[C@H](O)[C@@H](O)[C@@H](O[C@H]4[C@H](O)[C@@H](O)[C@@H](O[C@H]5[C@H](O)[C@@H](O)[C@@H](O[C@H]6[C@H](O)[C@@H](O)[C@@H](O[C@H]7[C@H](O)[C@@H](O)[C@@H](O[C@H]8[C@H](O)[C@@H](O)[C@@H](O[C@H]1[C@H](O)[C@H]2O)O[C@@H]8COCC(C)O)O[C@@H]7COCC(C)O)O[C@@H]6COCC(C)O)O[C@@H]5COCC(C)O)O[C@@H]4COCC(C)O)O[C@@H]3COCC(C)O` (stereo partly drawn) [HPBCD, hydroxypropyl-β-CD], the binding constant [7] is given as 20000 L/mol.

For methyl-β-CD, the binding constant [8] is given as 10000 to 50000 L/mol.

In the case of dimethyl-β-CD, the binding constant [7] is listed as 600000 L/mol.

In the case of `OC[C@H]1O[C@@H]2O[C@H]3[C@H](O)[C@@H](O)[C@@H](O[C@H]4[C@H](O)[C@@H](O)[C@@H](O[C@H]5[C@H](O)[C@@H](O)[C@@H](O[C@H]6[C@H](O)[C@@H](O)[C@@H](O[C@H]7[C@H](O)[C@@H](O)[C@@H](O[C@H]8[C@H](O)[C@@H](O)[C@@H](O[C@H]1[C@H](O)[C@H]2O)O[C@@H]8CO)O[C@@H]7CO)O[C@@H]6CO)O[C@@H]5CO)O[C@@H]4CO)O[C@@H]3CO` [β-CD], the “effect on alternariol-induced cytotoxicity” value [9] is listed as “did not affect”.

For `OC[C@H]1O[C@@H]2O[C@H]3[C@H](O)[C@@H](O)[C@@H](O[C@H]4[C@H](O)[C@@H](O)[C@@H](O[C@H]5[C@H](O)[C@@H](O)[C@@H](O[C@H]6[C@H](O)[C@@H](O)[C@@H](O[C@H]7[C@H](O)[C@@H](O)[C@@H](O[C@H]8[C@H](O)[C@@H](O)[C@@H](O[C@H]9[C@H](O)[C@@H](O)[C@@H](O[C@H]1[C@H](O)[C@H]2O)O[C@@H]9CO)O[C@@H]8CO)O[C@@H]7CO)O[C@@H]6CO)O[C@@H]5CO)O[C@@H]4CO)O[C@@H]3CO` [γ-CD], the “binding constant (K), 1:1 complexes” value ([10]; 1:1) is listed as 500 L/mol, the “binding constant (K), 1:2 complexes” value ([10]; 1:2) is listed as 6000 L/mol and the “binding constant (K)” value [11] is listed as “approximately 10^4 L/mol”.

For succinyl–methyl-β-CD, the binding constant [8] is given as 10000 to 50000 L/mol.
